Laboratory results published in paper PMC11363325, “A Novel Prodrug Strategy Based on Reversibly Degradable Guanidine Imides for High Oral Bioavailability and Prolonged Pharmacokinetics of Broad-Spectrum Anti-influenza Agents” (ACS Central Science, 2024).
Where two headings read alike, the source gives them in different places.

Columns and labels:
[1] = test system: A/Puerto Rico/8/1934 (PR8; H1N1); experiment: microbe, parasite or virus in culture; conditions: Influenza A virus, MDCK
B/Lee/1940 (Lee) = experiment: microbe, parasite or virus in culture; conditions: Influenza B virus, MDCK
in vitro [2] = experiment: in vitro
[3] = test system: A/Hong Kong/8/1968 (HK; H3N2); experiment: microbe, parasite or virus in culture; conditions: Influenza A virus, H3N2, MDCK
[4] = In vitro microsomal stability; type: in vitro ADME, rat; conditions: for half-life at 100 μM: liver microsomes; for CLint (intrinsic clearance): rat
Method: In vitro microsomal stability
Sprague Dawley rat microsomes were obtained from GibcoTM. NADPH was purchased from Sigma-Aldrich (Munich, Germany). Liver microsomes at 0.5 mg/mL concentration (final volume of 200 μL) were incubated in phosphate buffer (pH 7.4), containing 3 mM MgCl2. OSC-GCDI prodrug was dissolved in DMSO to be 40 mM concentration, then each prodrug solution was mixed with prepared buffer to achieve a final concentration of 100 μM (0.25% DMSO). Test compounds were incubated at 37 °C and started by the addition of the 1mM NADPH as cofactor. The samples were taken at 0, 30, 60, and 90 min. The reaction was terminated by addition of ice-cold acetonitrile/methanol (1:1, v/v). After collection, samples were centrifuged (10 min, 16,000 rpm), then the centrifuged supernatant was directly analyzed by using HPLC analysis. Metabolic half-time (t1/2) was calculated by using the equation of first order

in vitro [5] = type: in vitro ADME; conditions: PAMPA
Method: To assess this hypothesis, we conducted the parallel artificial membrane permeability assay (PAMPA) for simulating passive transcellular permeation.[41]
Supplemental Experimental Procedures
In vitro Parallel Artificial Membrane Permeability Assay (PAMPA) […]
evaluated using Parallel Artificial Membrane Permeability Assay Kit (PAMPA-096). Each prodrug and the supplied permeability controls were dissolved in DMSO at the concentration of 10 mM. Then 25 μL of each prodrug solution was mixed with 475 μL of 50 mM sodium phosphate buffer (pH 6.5) to be used as the test solution. GOC/HPMCP and OSC-GCDI/HPCMP particles are dissolved in 50 mM sodium phosphate buffer (5% DMSO, pH 6.5) to achieve a final concentration of 200 µM. In the acceptor plate, 300 μL of 50 mM sodium phosphate buffer (pH 7.4) was added. Subsequently, before adding 200 μL of each test solution to the donor plate, 5 μL of 4% lecithin in dodecane was directly applied to the well membrane of the donor plate. Donor plate was carefully placed into acceptor plate and incubate at r.t. for 16 – 24 h. Donor plate was removed and each solution was collected and filtered by a PVDF filter (0.20 μm pore size). The total prodrug concentration in each plate was determined by HPLC analysis.
In the case of OSC-GCDI(P), partial degradation occurred due to the instability of OSC-GCDI(P) in the buffer. Therefore, the collected solution was further incubated in a 1 M KOH solution for complete hydrolysis. Then, the concentration of GOC was quantified instead.

physchem [6] = type: physicochemical
physchem [7] = type: physicochemical; conditions: pH 7.4
[8] = cited from earlier work
[9] = Stability of OSC-GCDIs in human serum; type: in vitro ADME; conditions: 200 μM prodrug, 37 °C
Method: (§1) Stability of OSC-GCDIs in serum
(§2) Stability of the GCDI prodrugs were examined by incubating prodrugs in human and BALB/c serum at 37 °C and 200 μM final concentration. Briefly, each prodrug was dissolved in DMSO to be 20 mM concentration, then 10 μL of each prodrug solution was mixed with 990 μL of serum. At different time intervals, 100 μL of the samples were taken and mixed with 100 μL of MeCN. Samples were centrifuged at 14,000 rpm for 10 min at 4 °C and the supernatant was immediately frozen (−80 °C). After thawing

[10] = Stability of OSC-GCDIs in phosphate buffers; type: physicochemical
[11] = Stability of OSC-GCDIs and GOC release in BALB/c serum; type: in vitro ADME; conditions: mouse; for GOC released: 200 μM
Method: as §1
as §2, with “thawing and shaking, the samples were filtered using a polytetrafluoroethylene (PTFE) filter (0.20 μm pore size) […]” for “thawing”
Release profiles of GOC from the OSC -GCDI prodrugs conjugated to human serum albumin OSC-GCDIs were dissolved in Dulbecco ’s Phosphate-Buffered Saline (DPBS) containing HSA (20 mg/mL) to be concentration of 1 mM, then the mixture was shaken for 10 min at 37 °C. Unbound OSC-GCDIs were removed by washing twice with DPBS using Vivaspin 500 ultrafiltration units (10 kDa cutoff).
Following centrifugation, the samples were redissolved in 1 mL DPBS. Before incubation at 37 °C, 50 µL sample was taken and mixed with 50 µL of 1 M KOH in m ethanol solution to completely hydrolyze the conjugates and determine the initial drug concentration bound to HSA. Subsequently, the samples were incubated at 37 °C and after 1, 2, 4, 24, and 72 h incubation, 50 µL of the samples were taken and mixed with 50 µL MeCN. Then, the concentration of the released GOC was quantified by HPLC. […]

[12] = mice, oral, non-formulated prodrug
[13] = target: human serum albumin (HSA) (Homo sapiens, UniProt P02768); experiment: Albumin binding of OSC-GCDIs (MALDI-TOF MS); conditions: MALDI-TOF MS of trypsin-digested HSA
Method: Albumin binding of OSC-GCDIs
OSC-GCDI(P) (0.2 mg/mL or 10 mg/mL) was mixed with HSA (1 mg/mL) in 50 mM Tris -HCl buffer (pH 6.8). The sample was shaken for 20 min at room temperature. Unbound OSC-GCDI(P) was removed by washing three times with distilled water (DW) using Vivaspin 500 ultrafiltration units (10 kDa cutoff).
Following centrifugation, the HSA samples were placed in the condition of 8 M urea, 50 mM Tris-HCl (pH 6.8), and 5 mM DTT at 37 °C for 60 min. Then, 50 mM Tris-HCl (pH 6.8) was added until the urea concentration was less than 1 M. Trypsin Gold was then added to achieve a final protease-to-protein ratio of 1:20 (w/w). The sample was incubated at 37 °C for 60 min. The mass-to-charge ratio of the digested sample was measured by MALDI-TOF (Matrix -Assisted Laser Desorption/Ionization Time -of-Flight) MS using α-cyano-4-hydroxycinnamic acid as the matrix. […]

[14] = authors' response to reviewers, no reference given; cited from earlier work
[15] = parameters: method as in Buss, J. L.; Hasinoff, B. B. J. Mol. Model. 2001, 7, 438–444; conditions: amine-based imides; ref Buss, J. L.; Hasinoff, B. B. J. Mol. Model. 2001, 7, 438–444; cited from earlier work
[16] = sodium phosphate buffer, pH 2, phosphate buffer pH 2.0, 37 °C, read-out: T1/2
[17] = sodium phosphate buffer, pH 6.5, phosphate buffer pH 6.5, 37 °C, read-out: T1/2
[18] = sodium phosphate buffer, pH 7.4, phosphate buffer pH 7.4, 37 °C, read-out: T1/2
[19] = sodium phosphate buffer, pH 8, phosphate buffer pH 8.0, 37 °C, read-out: T1/2
[20] = BALB/c serum, 200 μM prodrug, 37 °C, read-out: T1/2
[21] = Sprague Dawley, pH 7.4, rat liver microsome, 100 μM, 37 °C

Chain of human serum albumin (HSA) (P02768 25-609): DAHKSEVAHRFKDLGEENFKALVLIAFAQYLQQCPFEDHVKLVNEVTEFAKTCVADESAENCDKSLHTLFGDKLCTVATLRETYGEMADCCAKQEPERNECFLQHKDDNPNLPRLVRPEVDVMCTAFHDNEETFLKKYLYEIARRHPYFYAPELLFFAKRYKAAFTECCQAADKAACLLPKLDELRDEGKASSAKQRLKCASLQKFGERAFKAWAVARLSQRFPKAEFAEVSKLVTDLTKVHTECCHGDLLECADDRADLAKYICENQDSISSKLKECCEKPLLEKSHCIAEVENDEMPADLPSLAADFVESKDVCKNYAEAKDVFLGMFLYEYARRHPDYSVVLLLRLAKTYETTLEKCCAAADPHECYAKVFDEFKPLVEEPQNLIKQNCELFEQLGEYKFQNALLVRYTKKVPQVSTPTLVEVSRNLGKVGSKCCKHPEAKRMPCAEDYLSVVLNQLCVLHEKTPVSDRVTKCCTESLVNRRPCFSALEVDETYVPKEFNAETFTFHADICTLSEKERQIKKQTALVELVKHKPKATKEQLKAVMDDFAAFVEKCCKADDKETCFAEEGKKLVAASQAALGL

| SMILES | EC50 [1] [nM] | EC50 (B/Lee/1940 (Lee)) [nM] | EC50 [3] [nM] | Papp at 500 μM (in vitro [5]) [×10⁻⁶ cm/s] | logP (physchem [6]) | logD (physchem [7]) | CC50 at 3 days (in vitro [2]; dog) [nM] | half-life at 200 μM [9] [h] | half-life at 100 μM [10, 16] [h] | half-life at 100 μM [10, 17] [h] | half-life at 100 μM [10, 18] [h] | half-life at 100 μM [10, 19] [h] | half-life at 200 μM [11, 20] [h] | further results |
| --- | --- | --- | --- | --- | --- | --- | --- | --- | --- | --- | --- | --- | --- | --- |
| NC12CC3CC(CC(C3)C1)C2 [AMT, Amantadine, reference compound] | > 100000 | > 100000 | 1560 ± 400 | – | – | – | – | – | – | – | – | – | – | CC50 at 3 days (in vitro [2]): > 100000 nM |
| CCC(CC)O[C@@H]1C=C(C(=O)O)C[C@H](NC(=N)N)[C@H]1NC(C)=O [GOC, guanidino oseltamivir carboxylate, reference compound] | 5 ± 1 | 700 ± 150 | < 5 | – | – | – | – | – | – | – | – | – | – | half-life ([4]; Sprague Dawley, microsomes, pH 7.4, rat liver microsome, 100 μM, 37 °C): 116 h; remaining GOC ([4]; rat liver microsomes, after 90-min incubation): 98.8%; Effective permeability Pe (in vitro [5]): almost negligible; logP (physchem [6]; octanol–water, room temperature, read-out: log P): -1.35; CC50 (in vitro [2]; dog): > 100000 nM; logD (physchem [7]; octanol-phosphate buffer, read-out: log D7.4): -1.49; oral bioavailability ([8]; in vivo, po): < 4% |
| CCOC(=O)C1=C[C@@H](OC(CC)CC)[C@H](NC(C)=O)[C@@H](N)C1 [OS-P, Oseltamivir phosphate, reference compound] | – | – | – | 2.27 | 0.22 | -0.42 | – | – | – | – | – | – | – | oral bioavailability ([8]; authors' response to reviewers, no reference given): 80%; oral bioavailability ([8]; in vivo, po): > 80%; half-life ([8]; in vivo): less than 1 day |
| CCC(CC)O[C@@H]1C=C(C(=O)O)C[C@H](N)[C@H]1NC(C)=O [OSC, oseltamivir carboxylate, reference compound] | 100 ± 10 | 1290 ± 250 | < 5 | – | – | – | > 100000 | – | – | – | – | – | – | – |
| CCCCC1CC(=O)N(C(=N[C@H]2CC(C(=O)O)=C[C@@H](OC(CC)CC)[C@@H]2NC(C)=O)N2C(=O)CC(CCCC)C2=O)C1=O (some centres unmarked) [OSC-GCDI(B)] | 90 ± 10 | 72400 ± 1350 | 40 ± 10 | 4.5 | 1.83 | 0.91 | > 100000 | 0.875 | > 24 | > 24 | 7.7 | 2.62 | 0.285 | increase of lipophilicity of GOC via the GCDI modification (based on P) (physchem [6]): 2082 fold |
| CCC(CC)O[C@@H]1C=C(C(=O)O)C[C@H](N=C(N2C(=O)[C@H]3CCCC[C@H]3C2=O)N2C(=O)[C@H]3CCCC[C@H]3C2=O)[C@H]1NC(C)=O [OSC-GCDI(C)] | 10 ± 10 | 2210 ± 200 | < 5 | 2.99 | 1.33 | 0.46 | > 100000 | 0.437 | > 24 | 10.5 | 1.36 | 0.447 | 0.397 | – |
| CCC(CC)O[C@@H]1C=C(C(=O)O)C[C@H](N=C(N2C(=O)CC(C)(C)C2=O)N2C(=O)CC(C)(C)C2=O)[C@H]1NC(C)=O [OSC-GCDI(D)] | 70 ± 10 | 13700 ± 2850 | 30 ± 10 | 1.66 | 0.98 | -0.32 | > 100000 | 1.95 | > 24 | > 24 | 8.25 | 2.69 | 2.63 | half-life at 100 μM [4, 21]: 6.42 h; CLint (intrinsic clearance) ([4]; microsomes): 3.60; half-life at 100 μM ([10]; buffer, pH 7.4, half-life): > 8 h; T1/2 ([10]; phosphate buffer pH 7.4, 37 °C): 8.252 h; half-life at 200 μM ([11]; BALB/c, serum): > 1.67 h |
| CCC(CC)O[C@@H]1C=C(C(=O)O)C[C@H](N=C(N2C(=O)c3ccccc3C2=O)N2C(=O)c3ccccc3C2=O)[C@H]1NC(C)=O [OSC-GCDI(P)] | 30 ± 10 | 2260 ± 400 | 10 ± 10 | 3.88 ± 0.31 | 1.61 | 1.01 | > 100000 | 0.0217 | 1.57 | 1.47 | 0.235 | < 0.0167 | 0.0217 | half-life at 100 μM [4, 21]: 0.295 h; CLint (intrinsic clearance) ([4]; microsomes): 78.2; plasma concentration of the prodrug [12]: below detection limit; covalent conjugation to HSA [13]: covalent adducts; Effective permeability Pe (in vitro [5]; 500 μM): 3.07 ×10⁻⁶ cm/s; T1/2 ([10]; phosphate buffer pH 2.0, 37 °C): 1.56 h; T1/2 ([10]; phosphate buffer pH 6.5, 37 °C): 1.46 h; GOC released ([11]; BALB/c, 30 min): 37%; GOC released ([11]; BALB/c, 24 h): 68%; half-life at 200 μM ([11]; BALB/c, serum): 0.0217 h |
| C=CC(=O)O [acrylic acid] | – | – | – | – | – | – | – | – | – | – | – | – | – | pKa [14]: 4.3 |
| O=C1C=CC(=O)N1 [maleimide] | – | – | – | – | – | – | – | – | – | – | – | – | – | hydrolysis rate compared to succinimide [15]: 300 times faster |
| O=C1NC(=O)c2ccccc21 [phthalimide] | – | – | – | – | – | – | – | – | – | – | – | – | – | hydrolysis rate compared to succinimide [15]: 100 times faster |
